Measured values taken from patent US20120010178A1, “METHODS AND COMPOUNDS FOR TREATMENT OF NEURODEGENERATIVE DISORDERS” (PRESIDENT AND FELLOWS OF HARVARD COLLEGE, priority 2008, published 2012).
“Also recorded” adds a separate entry of the source.

Assays:
SMN [1] = assay: High-content fibroblast screen for compounds that modulate SMN level; conditions: for SMN level in fibroblast screen (increase or decrease): human fibroblasts, 2-3 days with compound;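 on all read-outs here: Anti-SMN immunostaining with confocal imaging of nuclear and cytoplasmic SMN and gem counts, tested at 0.1, 1 and 10 uM, fold change relative to negative control wells on each plate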
Experimental: Human fibroblasts were incubated for 2-3 days with compounds from annotated collections. Cells were fixed and stained with an anti-SMN antibody. Confocal imaging was used to quantify SMN fluorescence in nucleus and cytoplasm and count Gems. Data were collected and subsequently analyzed by clustering compounds by suspected mechanism of action and chemical structure.
Following optimization of assay conditions on day 0, total of 500 human fibroblasts (GM09677 line) per well were seeded in 384-well plates, on day 3 they were treated with compounds (robot CyBio) from the annotated collections and on the 5 day plates were fixed and stained (robot MAPD) with an anti-SMN antibody and secondary antibody conjugated with 448 fluorophore (FIG. 19a). Compounds from the libraries were added in duplicate at three final concentrations of 10, 1 and 0.1 uM.
SMN detection was done on the automated confocal microscope Opera PerkinElmer with separate fluorescent exposures to 488 nM laser for and a UV light source to detect nuclei stained with Hoechst 33258 with a 20× objective.
After scanning on the Opera, an XML file extraction workflow, designed with Inforsense KDE, was used to assemble the data from multiple replicate plates of each HCS experiment including the quantitative parameters described above and chemical identities, chemical concentrations and indications of which wells were used for positive and negative controls. […] The fold-induction of SMN intensity values for each well treated with a library chemical were normalized to the SMN average intensity in multiple negative control wells per plate.
Since it is not known which form of SMN increase is the most essential, hits that scored in a duplicate at least in two different parameters greater than 1.3 fold at any of the three concentrations were selected (FIG. 19d). […] Further, 220 compounds were screened in the absence of anti-SMN primary antibody with the same assay conditions, to filter out the fluorescent compounds.

SMN [2] = assay: SMN immunofluorescence quantification (cytoplasm, nucleus, GEMs) in fibroblasts from SMA patients; type: cell-based, human; conditions: for levels of cytoplasmic and nuclear SMN (in words) / Avg. SMN fold increase: SMA patient fibroblasts; for levels of cytoplasmic and nuclear SMN (in words): substance alone; for decrease of basal level of SMN: added to the regular serum media in which cells are maintained, no added PDGF; for Avg. SMN fold increase: human PDGF isoforms
Experimental: Specifically, fibroblasts from patients suffering from SMA were treated with Ionomycin (a channel modulator), Ouabain (a cardiac glycoside and channel modulator), PDGF, SAHA (an HDAC inhibitor), Lactacystin (a proteasome inhibitor) or WIN 55,212-2 (a cannabinoid receptor […] and GPCR ligand) for 72 hours. The cells were fixed with methanol/acetone and stained with Pharmingen BD antibodies, followed by 488 AlexaFluor staining. Images were obtained with 60× lens on Zeiss LSM510 META on an inverted confocal microscope.
For example, fibroblasts from patients suffering from SMA were treated with Ouabain, Digoxin or Lanatoside at a concentration of 0, 2.5 nM, 5 nM, 10 nM, 20 nM, 40 nM, 80 nM, […] for 72 hours. The cells were fixed with methanol/acetone and stained with Pharmingen BD antibodies, followed by 488 AlexaFluor staining. Images were obtained with 60× lens on Zeiss LSM510 META on an inverted confocal microscope.
An assay was established for high-content evaluation of SMN protein level in different cellular compartments after treatment with small molecules. SMN protein was visualized by immunofluorescent staining and multiple fields from each plate well were scanned by an automated confocal Opera microscope. […] For each well, the algorithm generated quantitative parameters representing number of cells, as well as SMN fluorescent intensity per cell in cytoplasm, nucleus, number and intensity of GEMs (FIG. 15). […] During the assay transfer to the robotic platform fixation with the ice cold methanol was technically limited, therefore to preserve the maximum possible window we chose to perform the screen on parental fibroblast with PFA fixation.
For fibroblast assays, human fibroblasts lines GM09677 (derived from patient with SMA type 1 disease) and GM03814 (derived from unaffected parental SMA carriers) were used (Coriell Cell Repositories). […] For secondary assays cells from GM09677 line were used.
Fibroblasts were grown in MEM media (Invitrogen) supplemented with 5% Fetal Bovine Serum (FBS, Invitrogen), 2 mM glutamine and 1% penicillin-streptomycin (100 U/ml) in a presence of 5% CO2 at 37° C. For drug treatments, cells were plated and treated 24 h later with 10 μM MG132 (Biomol International), […] Calpeptin (Biomol International), 10 mM ammonium chloride, 1 μM myristoylated PKI, or vehicle for the designated times.
(§1) Compounds were stored at appropriate temperature and dissolved accordingly to the manufacturers (Tocris, Enzo, EMD and Sigma-Aldrich) in DMSO (Sigma-Aldrich), unless stated otherwise (Monensin Na in EtOH, DMPQ in water). Growth factors and PDGF neutralizing antibodies (R&D Systems) were reconstituted with buffers recommended by the supplier. For generation of the dose curves, 1×10^3 fibroblasts were plated on to 96-well Greiner Senso plates (VWR) and treated with compounds on the second day then fixed and stained at the indicated time points. For GSK inhibitors and performing p-GSK3b(Ser9) detection, two days after plating growth media containing 5% FBS was replaced to the media with FBS reduced down to 0.5%, to starve cells for 72 hours. Addition of the GSK inhibitors was done in 5% FBS enriched media.

SMN [3] = assay: Inhibition of PDGF-stimulated SMN increase in fibroblasts by kinase/receptor inhibitors; type: cell-based, human; conditions: for SMN Cytoplam (inhibition of PDGF-stimulated SMN increase) / SMN GEM Intensity (inhibition of PDGF-stimulated SMN increase) / SMN Nuclear (inhibition of PDGF-stimulated SMN increase): inhibitor at the concentration (nM), fibroblast stimulation with PDGF; for PDGF-stimulated SMN increase in presence of inhibitor (in words): SMA patient fibroblasts, PDGF plus inhibitor or neutralizing antibody; for Cell Number (affected by inhibitor): inhibitor at the concentration of the table row, PDGF stimulated fibroblasts; for PDGF-stimulated SMN increase in the cytoplasm in presence of inhibitor (in words) / PDGF-stimulated SMN increase in the nucleus in presence of inhibitor (in words): pre-treatment with p38 inhibitor
Experimental: Fibroblasts from patients suffering from SMA were treated with PDGF at a concentration of 0, 0.3 ng/ml, 0.63 ng/ml, 1.25 ng/ml, 2.5 ng/ml, 5 ng/ml, 10 ng/ml or 20 ng/ml, in the absence or in the presence of 25 uM DMPQ or 25 uM AG-1296 respectively for 72 hours. The levels of both cytoplasmic and nuclear SMN were detected and quantified using the method described in Example 2.
(§2) Fibroblasts from patients suffering from SMA were either control treated or treated with PDGF at a concentration of 0, 0.63 ng/ml, 1.25 ng/ml, 2.5 ng/ml, 5 ng/ml, 10 ng/ml or 20 ng/ml, in the absence or in the presence of 50 uM LY294002 or 2 uM P1-103 respectively for 72 hours. The levels of both cytoplasmic and nuclear SMN were detected and quantified using the method described in Example 2.
as §2, with “of” for “of 50 uM LY294002 or”, “uM Papamycin” for “uM P1-103 respectively”, “Example x.” for “Example 2.”
A range of concentrations were tested in order not to miss the effects. SMN level were evaluated by Opera Evoteck in each cellular compartment and to assess the cell numbers that are summarized in the Table 3.
as §1, with “media. As previously described, starvation increases levels of constitutively activate GSK3b kinase, allowing to achieve a more dramatic inhibitory effect when GSK inhibitors are added together with growth factors that are also known to inhibit GSK by Ser-9 phosphorylation. […] For all compounds and growth factors control wells received solvent in amount equivalent to the highest concentration of the compound in a dose curve. For PDGF inhibitory studies, cells were pre-treated with kinase inhibitors for 2 hours and PDGF was added with a fresh kinase inhibitor solution and incubated for an additional 3 days.” for “media.”

Row | Compound | SMN level in fibroblast screen (increase or decrease) (SMN [1]) | SMN Cytoplam (inhibition of PDGF-stimulated SMN increase) (SMN [3]) | SMN GEM Intensity (inhibition of PDGF-stimulated SMN increase) (SMN [3]) | SMN Nuclear (inhibition of PDGF-stimulated SMN increase) (SMN [3]) | other results
1 | CCCCC/C=C\C/C=C\C/C=C\C/C=C\CCCC(=O)NCCO [Anandamide] | increase SMN |  |  |  | 
2 | COc1ccc(C[C@H]2NC[C@H](O)[C@H]2OC(C)=O)cc1 [Anysomycin] | increase SMN |  |  |  | concentration at which SMN level was increased (SMN [1]; during screening): 0.1 µM
3 | COC(=O)C1=C(C)NC(C)=C([N+](=O)[O-])C1c1ccccc1C(F)(F)F (stereo not shown) [Bay K8644] |  |  |  |  | levels of cytoplasmic and nuclear SMN (in words) (SMN [2]): not active
4 | Cc1c[nH]c(-c2cnc(NCCNc3ccc(C#N)cn3)nc2-c2ccc(Cl)cc2Cl)n1 [CHIR99021] |  |  |  |  | levels of cytoplasmic and nuclear SMN (in words) (SMN [2]): increase SMN levels; also recorded: Most active compounds
5 | CC(=O)C1=C(O)[C@@H]2[C@H]3c4c[nH]c5cccc(c45)C[C@H]3C(C)(C)N2C1=O [Cyclopiazonic acid] |  |  |  |  | levels of cytoplasmic and nuclear SMN (in words) (SMN [2]): not active
6 | C[C@H]1O[C@@H](O[C@H]2[C@@H](O)C[C@H](O[C@H]3[C@@H](O)C[C@H](O[C@H]4CC[C@@]5(C)[C@H](CC[C@@H]6[C@@H]5C[C@@H](O)[C@]5(C)[C@@H](C7=CC(=O)OC7)CC[C@]65O)C4)O[C@@H]3C)O[C@@H]2C)C[C@H](O)[C@@H]1O [Digoxin] | increase SMN |  |  |  | 
7 | OCCN(CCO)c1nc(N2CCCCC2)c2nc(N(CCO)CCO)nc(N3CCCCC3)c2n1 [Dipyridamole] | increase SMN |  |  |  | 
8 | C[C@H]1O[C@@H](O[C@H]2[C@@H](O)C[C@H](O[C@H]3[C@@H](O)C[C@H](O[C@H]4CC[C@@]5(C)[C@H](CC[C@@H]6[C@@H]5CC[C@]5(C)[C@@H](C7=CC(=O)OC7)CC[C@]65O)C4)O[C@@H]3C)O[C@@H]2C)C[C@H](O)[C@@H]1O [Dititoxin] | increase SMN |  |  |  | 
9 | O=C1Nc2ccc3ncsc3c2/C1=C/Nc1ccc(S(=O)(=O)Nc2ccccn2)cc1 [GW8510] | SMN is increase |  |  |  | 
10 | O=C(Nc1cc(C(F)(F)F)cc(C(F)(F)F)c1)c1cc(Cl)ccc1O [IMD-0354] | SMN is increase |  |  |  | 
11 | O=c1cc(N2CCOCC2)oc2c(-c3ccccc3)cccc12 [LY294002] |  | 100% | 100% | 100% | decrease of basal level of SMN (SMN [2]): 40%; reduction of SMN (SMN [2]; combinatory treatment of 0.5% serum and PI-3 kinase inhibitor, patient cells): 20%
12 | CC(=O)O[C@H]1C[C@H](O[C@H]2[C@@H](O)C[C@H](O[C@H]3[C@@H](O)C[C@H](O[C@H]4CC[C@@]5(C)[C@H](CC[C@@H]6[C@@H]5C[C@@H](O)[C@]5(C)[C@@H](C7=CC(=O)OC7)CC[C@]65O)C4)O[C@@H]3C)O[C@@H]2C)O[C@H](C)[C@H]1O[C@@H]1O[C@H](CO)[C@@H](O)[C@H](O)[C@H]1O [Lanatoside C] | increase SMN |  |  |  | 
13 | COc1cccc(-c2cc(=O)c3ccccc3o2)c1N [PD98059] |  | 20% | 20% | 20% | PDGF-stimulated SMN increase in presence of inhibitor (in words) (SMN [3]): only partially inhibited; Cell Number (affected by inhibitor) (SMN [3]): Yes
14 | CO[C@H]1C[C@@H]2CC[C@@H](C)[C@@](O)(O2)C(=O)C(=O)N2CCCC[C@H]2C(=O)O[C@H]([C@H](C)C[C@@H]2CC[C@@H](O)[C@H](OC)C2)CC(=O)[C@H](C)/C=C(\C)[C@@H](O)[C@@H](OC)C(=O)[C@H](C)C[C@H](C)/C=C/C=C/C=C/1C [Rapamycin] |  | 80% | 80-100% | 80-100% | 
15 | Oc1ccc(-c2nc(-c3ccc(F)cc3)c(-c3ccncc3)[nH]2)cc1 [SB202190] |  | 20% | some | 0% | Cell Number (affected by inhibitor) (SMN [3]): Yes; PDGF-stimulated SMN increase in the cytoplasm in presence of inhibitor (in words) (SMN [3]): able to prevent SMN increase induced by PDGF; also recorded: partial inhibition of SMN in the cytoplasm; PDGF-stimulated SMN increase in the nucleus in presence of inhibitor (in words) (SMN [3]): not in the nucleus; also recorded: leaving nuclear SMN unaffected
16 | C[S+]([O-])c1ccc(-c2nc(-c3ccc(F)cc3)c(-c3ccncc3)[nH]2)cc1 (stereo not shown) [SB203580, 4-(4-Fluorophenyl)-2-(4-methylsulfinylphenyl)-5-(4-pyridyl)-1H-imidazole] |  | 20% | some | 0% | Cell Number (affected by inhibitor) (SMN [3]): Yes; PDGF-stimulated SMN increase in the cytoplasm in presence of inhibitor (in words) (SMN [3]): able to prevent SMN increase induced by PDGF; also recorded: partial inhibition of SMN in the cytoplasm; PDGF-stimulated SMN increase in the nucleus in presence of inhibitor (in words) (SMN [3]): not in the nucleus; also recorded: leaving nuclear SMN unaffected
17 | CC(=O)O[C@@H]1[C@@H](OC(C)=O)[C@@H](O)[C@H](Oc2c(-c3ccc(O)cc3)oc3cc(O)cc(O)c3c2=O)O[C@H]1C [SL-0101] |  | 20% | 20% | 20% | PDGF-stimulated SMN increase in presence of inhibitor (in words) (SMN [3]): didn't have an inhibitory effect
18 | N#CC(=C(/N)Sc1ccccc1N)/C(C#N)=C(\N)Sc1ccccc1N [U0126] |  | 20-30% ^ | 10% | 10% | PDGF-stimulated SMN increase in presence of inhibitor (in words) (SMN [3]): only partially inhibited; Cell Number (affected by inhibitor) (SMN [3]): No
19 | DMSO |  |  |  |  | decrease of basal level of SMN (SMN [2]): 20%
20 | FGF2: fibroblast growth factor, RTK ligand |  |  |  |  | levels of cytoplasmic and nuclear SMN (in words) (SMN [2]): increases SMN levels; levels of cytoplasmic and nuclear SMN (in words) (SMN [2]; listed as bFGF): active
21 | PDGF-AA rec.: recombinant PDGF-AA |  |  |  |  | Avg. SMN fold increase (SMN [2]): 1.3-1.4 fold
22 | PDGF-AB rec.: recombinant PDGF-AB |  |  |  |  | Avg. SMN fold increase (SMN [2]): 1.7-1.9 fold
23 | Ryanodine |  |  |  |  | levels of cytoplasmic and nuclear SMN (in words) (SMN [2]): weak effect
